# In US20120071475A1, “UREA DERIVATIVES HAVING PI3K-INHIBITING ACTIVITY” (SHIONOGI & CO., LTD., priority 2009, published 2012):
# Assays:
# CYP3A4 = biological target: T1, CYP3A4 (Homo sapiens, UniProt P08684); assay: CYP3A4 fluorescence MBI test; type: in vitro ADME; details: difference in IC50 with 0 or 30 minutes pre-reaction; CYP3A4 expressed in E. coli, substrate 7-BFC
# T1 construct: host or cells: E. coli
# Procedure, shortened: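 E. coli-expressed CYP3A4 debenzylating 5.6 μmol/L 7-BFC to fluorescent 7-HFC (Ex 420/Em 535 nm) in K-Pi pH 7.4 at 25° C, 15 min reaction. NADPH pre-incubation of 0 or 30 min, with 10-fold dilution before reaction. IC50 from 0.625–20 μmol/L (6 points); (+) for an IC50 shift ≥5 μmol/L, (−) for ≤3 μmol/L.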
# [1] = BA test (oral absorbability, bioavailability); type: in vivo
# Description: An experimental material and a method for examining oral absorbability
# (1) Animals used: rats or mice were used. (2) Breeding condition: chow and sterilized tap water were allowed to be taken in freely. (3) Setting of a dosage and grouping: a predetermined dosage was administered orally or intravenously. Groups were formed as shown below. (A dosage varied depending on each compound)
# Oral administration 1-30 mg/kg (n=2 to 3)
# Intravenous administration 0.5-10 mg/kg (n=2 to 3)
# (4) Preparation of administered liquid: In oral administration, a solution or suspension was administered. In intravenous administration, after solubilization, the administration was performed. (5) Method of Administration: In oral administration, compulsory administration to the stomach was conducted using an oral probe. In intravenous administration, administration from the caudal vein was conducted using a syringe with an injection needle. (6) Evaluation item: Blood was chronologically collected, and then the drug concentration in blood plasma was measured using a LC/MS/MS. (7) Statistical analysis: With regard to a shift in plasma concentration, the plasma concentration-time area under the curve (AUC) was calculated using a nonlinear least-squares program WinNonlin®. Bioavailability (BA) was calculated from the AUCs of the oral administration group and the intravenous administration group, respectively.
# [2] = biological target: T2, human ether-a-go-go related gene (hERG) channel (Homo sapiens, UniProt Q12809); assay: hERG test (whole-cell patch-clamp, IKr in HEK293 cells); type: cell-based; details: inhibition of maximum tail current (IKr), HEK293 cell expressing hERG, compound 1 μM, 10 minutes; 1 µM
# T2 construct: expressed in transfected cells; host or cells: HEK293
# T2 sequence (Q12809 whole entry): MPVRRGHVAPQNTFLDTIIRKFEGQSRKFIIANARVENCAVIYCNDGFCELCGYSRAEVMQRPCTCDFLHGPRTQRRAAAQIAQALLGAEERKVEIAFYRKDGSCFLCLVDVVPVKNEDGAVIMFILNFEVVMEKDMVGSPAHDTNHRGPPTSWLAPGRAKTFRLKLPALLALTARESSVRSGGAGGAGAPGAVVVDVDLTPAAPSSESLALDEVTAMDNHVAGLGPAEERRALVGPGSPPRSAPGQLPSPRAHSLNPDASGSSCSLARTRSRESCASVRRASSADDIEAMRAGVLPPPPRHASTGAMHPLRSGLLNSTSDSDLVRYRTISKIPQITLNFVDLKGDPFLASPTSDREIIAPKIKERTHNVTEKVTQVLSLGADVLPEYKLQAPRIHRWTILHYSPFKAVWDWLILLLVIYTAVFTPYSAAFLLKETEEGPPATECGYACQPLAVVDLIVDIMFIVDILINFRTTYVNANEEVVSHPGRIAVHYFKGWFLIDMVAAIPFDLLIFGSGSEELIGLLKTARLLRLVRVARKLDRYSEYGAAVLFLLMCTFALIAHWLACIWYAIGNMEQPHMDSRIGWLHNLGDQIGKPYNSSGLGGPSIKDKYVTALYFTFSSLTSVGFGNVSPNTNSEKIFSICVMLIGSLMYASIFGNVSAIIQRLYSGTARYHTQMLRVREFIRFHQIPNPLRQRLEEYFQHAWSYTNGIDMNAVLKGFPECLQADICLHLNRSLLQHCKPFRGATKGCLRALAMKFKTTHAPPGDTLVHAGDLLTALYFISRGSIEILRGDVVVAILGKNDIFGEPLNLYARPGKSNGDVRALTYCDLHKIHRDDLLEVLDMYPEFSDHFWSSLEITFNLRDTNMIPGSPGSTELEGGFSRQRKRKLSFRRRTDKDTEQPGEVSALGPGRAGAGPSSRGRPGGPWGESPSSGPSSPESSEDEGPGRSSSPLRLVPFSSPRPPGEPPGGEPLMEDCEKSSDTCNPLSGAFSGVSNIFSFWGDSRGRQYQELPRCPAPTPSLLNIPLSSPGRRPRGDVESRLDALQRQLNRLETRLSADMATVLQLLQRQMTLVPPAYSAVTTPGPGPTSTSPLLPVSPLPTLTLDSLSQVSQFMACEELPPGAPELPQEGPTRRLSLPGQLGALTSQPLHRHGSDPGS
# Procedure, shortened: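 hERG-expressing HEK293 cells, automated whole-cell patch clamp: hold −80 mV, +50 mV for 2 s, then −50 mV for 2 s to record IKr tail current. Compound in extracellular solution (pH 7.4) for 10 min at room temperature; inhibition of maximum tail current calculated versus pre-application and compared with 0.1% DMSO vehicle.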
# [3] = Solubility test (artificial intestinal juice pH 6.8, 1% DMSO); type: physicochemical; details: artificial intestinal juice pH 6.8 with 1% DMSO, fassgf or other biorelevant, kinetic from dmso stock, 25° C.
# Description: The solubility of a compound was determined under a condition in which 1% DMSO was added. 10 mmol/L compound solution was prepared using DMSO, and then 6 μL of the compound solution was added to 594 μL of artificial intestinal juice in pH 6.8 (to 250 mL of 0.2 mol/L potassium dihydrogen phosphate reagent solution was added 118 mL of 0.2 mol/L NaOH reagent solution and water to provide a final volume of 1000 mL). After standing at 25° C. for 16 hours, the mixed solution was filtered with suction. The filtrate was diluted twice with methanol/water (1/1), and then a concentration in the filtration was measured with HPLC or LC/MS/MS by the absolute calibration method.
# T1 sequence (P08684 whole entry): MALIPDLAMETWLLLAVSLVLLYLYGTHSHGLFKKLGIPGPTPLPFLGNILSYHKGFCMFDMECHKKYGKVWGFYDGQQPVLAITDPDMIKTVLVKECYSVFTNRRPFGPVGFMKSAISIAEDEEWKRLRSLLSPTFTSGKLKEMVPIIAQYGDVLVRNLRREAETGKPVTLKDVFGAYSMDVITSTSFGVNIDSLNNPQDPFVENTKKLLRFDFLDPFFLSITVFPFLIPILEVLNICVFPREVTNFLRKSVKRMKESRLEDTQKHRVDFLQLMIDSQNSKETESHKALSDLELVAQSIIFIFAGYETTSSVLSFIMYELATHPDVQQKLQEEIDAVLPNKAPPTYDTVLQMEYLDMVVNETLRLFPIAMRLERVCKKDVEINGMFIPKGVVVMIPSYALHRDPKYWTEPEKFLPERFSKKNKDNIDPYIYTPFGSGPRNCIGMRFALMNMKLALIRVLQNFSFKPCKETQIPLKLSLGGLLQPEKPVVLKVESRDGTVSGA
Compound,MBI (CYP3A4),also measured
COc1cc(N2CCc3nc(NC(=O)Nc4ccccc4C(=O)NC(C)C)sc3C2)nc(OC)n1 [Compound I-12],"(−) (When 3 μmol/L or less, the compound is shown as (−))","BA (Rat, 1 mg/kg, Methylcellulose suspension Oral Administration) [1]: 46.8%"
COc1cc(N2CCc3nc(NC(=O)Nc4ccccc4C(=O)NCCF)sc3C2)nc(OC)n1 [Compound I-88],"(−) (When 3 μmol/L or less, the compound is shown as (−))",–
COc1nc(Cl)cc(N2CCc3nc(NC(=O)Nc4cnccc4C(=O)NC(C)C)sc3C2)n1 [Compound I-91],"(−) (When 3 μmol/L or less, the compound is shown as (−))",–
COc1cncc(-c2ccc3nc(NC(=O)Nc4ccccc4OCCC(C)C)cn3n2)c1 [Compound I-114],"(−) (When 3 μmol/L or less, the compound is shown as (−))",–
CC(C)NC(=O)c1ccccc1NC(=O)Nc1nc2c(s1)CN(c1cncc(C(F)(F)F)c1)CC2 [Compound I-131],"(−) (When 3 μmol/L or less, the compound is shown as (−))",–
COc1cc(N2CCc3nc(NC(=O)Nc4ccccc4C(=O)NC(C)C(O)C(F)(F)F)sc3C2)nc(OC)n1 (stereo not drawn) [Compound I-139],"(−) (When 3 μmol/L or less, the compound is shown as (−))",hERG(at 1 μM) % Inhibition [2]: 8.5%
COc1cc(N2CCc3nc(NC(=O)Nc4cn(C)nc4C(=O)NCC(F)(F)F)sc3C2)nc(OC)n1 [Compound I-148],–,"BA (Rat, 1 mg/kg, Methylcellulose suspension Oral Administration) [1]: 45.1%"
Cc1nc(NC(=O)Nc2ccccc2C(=O)NC(C)C)sc1-c1csc(S(=O)(=O)N(C)CCN(C)C)c1 [Compound I-191],–,solubility at 16 h [3]: > 50 µM
COc1cc(N2CCc3nc(NC(=O)Nc4ccccc4C(=O)NN4CCN(C)CC4)sc3C2)nc(OC)n1 [Compound I-195],"(−) (When 3 μmol/L or less, the compound is shown as (−))",solubility at 16 h [3]: > 50 µM
CC(C)NC(=O)c1ccccc1NC(=O)Nc1nc2c(s1)CN(c1cccc(S(C)(=O)=O)c1)CC2 [Compound I-198],–,solubility at 16 h [3]: 10.1 µM
C[C@@H](CO)NC(=O)c1ccccc1NC(=O)Nc1nc2c(s1)CN(c1cncc(S(C)(=O)=O)c1)CC2 [Compound I-211],"(−) (When 3 μmol/L or less, the compound is shown as (−))",–
COc1cncc(-c2cc(NC(=O)Nc3ccccc3C(=O)NC(C)C)nn2C)c1 [Compound I-226],"(−) (When 3 μmol/L or less, the compound is shown as (−))",–
